In patent US8981094B2, “Piperidine/piperazine derivatives” (Janssen Pharmaceutica N.V., priority 2007, dated 2015):

Experiments:
human DGAT1 = biological target: T1, human DGAT1 (Homo sapiens, UniProt O75907); assay: Inhibition of DGAT1 activity, FlashPlate assay with DGAT1 membrane preparations and substrate micelles; assay type: biochemical; conditions: pIC50 = -logIC50, IC50 values expressed in M
T1 construct: FLAG (N); made in house; host or cells: SF9 insect cells (pFastBac baculovirus); total cell membranes
T1 sequence (O75907 1-488): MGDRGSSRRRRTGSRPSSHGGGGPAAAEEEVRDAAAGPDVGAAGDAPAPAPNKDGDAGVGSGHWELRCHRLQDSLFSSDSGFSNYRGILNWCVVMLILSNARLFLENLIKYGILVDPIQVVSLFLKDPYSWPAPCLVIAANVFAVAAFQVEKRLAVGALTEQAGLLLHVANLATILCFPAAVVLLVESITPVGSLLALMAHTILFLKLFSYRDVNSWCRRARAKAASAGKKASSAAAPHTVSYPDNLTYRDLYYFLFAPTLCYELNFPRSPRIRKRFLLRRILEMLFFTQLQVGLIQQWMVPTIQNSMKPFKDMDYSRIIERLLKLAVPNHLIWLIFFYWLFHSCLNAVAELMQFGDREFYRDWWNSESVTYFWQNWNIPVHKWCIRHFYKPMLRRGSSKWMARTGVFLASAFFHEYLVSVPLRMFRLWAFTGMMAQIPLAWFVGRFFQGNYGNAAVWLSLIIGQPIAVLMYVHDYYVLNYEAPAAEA
In short: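 FLAG-tagged human DGAT1 membranes (expressed in Sf9 cells) were incubated 120 min at 37° C. in 50 mM Tris-HCl pH 7.4 with 150 mM MgCl2, 1 mM EDTA, 0.2% BSA, 50 μM DAG micelles (PC/PS) and 8.4 μM [^3H]-oleoylCoA. The reaction was stopped with N-ethylmaleimide and read as FlashPlate radioluminescence. Responses were normalized to enzyme/no-enzyme controls to fit dose-response curves.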

| Structure (SMILES) | melting point | IC50 (human DGAT1) |
| --- | --- | --- |
| CCc1ccccc1NC(=O)N1CCN(c2ccc(NC(=O)CCCc3ccccc3)cc2)CC1 [Compound 93] | 189 °C | 240 nM |
| O=C(CCCc1ccccc1)Nc1ccc(N2CCN(C(=O)Nc3ccccc3F)CC2)cc1 [Compound 94] | 177.3 °C | 295 nM |
| O=C(CCCc1ccccc1)Nc1ccc(N2CCN(C(=O)Nc3ccccc3Br)CC2)cc1 [Compound 95] | 147.4 °C | 126 nM |
| Cc1ccccc1NC(=O)N1CCN(c2ccc(NC(=O)CCCc3ccccc3)cc2)CC1 [Compound 96] | 164.7 °C | 75.9 nM |
| CN(CC(=O)Nc1ccc(N2CCN(C(=O)Nc3c(Cl)cccc3Cl)CC2)cc1)C(=O)NC(C)(C)C [Compound 165] | 214 to 215 °C | 64.6 nM |
| CN(CC(=O)Nc1ccc(N2CCN(C(=O)Nc3c(Cl)cccc3Cl)CC2)cc1)C(=O)Cc1ccccc1 [Compound 171] | 253 to 255 °C | 28.2 nM |
| CS(=O)(=O)N1CCN(CCC(=O)Nc2ccc(N3CCN(C(=O)Nc4c(Cl)cccc4Cl)CC3)cc2)CC1 [Compound 172] | 250 to 252 °C | 603 nM |
| COc1ccc(CN(CCC(=O)Nc2ccc(N3CCN(C(=O)Nc4c(Cl)cccc4Cl)CC3)cc2)S(=O)(=O)c2ccccc2[N+](=O)[O-])cc1 [Compound 173] | 197 to 199 °C | 34.7 nM |
| O=C(CCNCc1ccc(F)cc1)Nc1ccc(N2CCN(C(=O)Nc3c(Cl)cccc3Cl)CC2)cc1 [Compound 174] | 192 to 193 °C | 347 nM |
| O=C(CCN(Cc1ccc(F)cc1)S(=O)(=O)c1ccccc1[N+](=O)[O-])Nc1ccc(N2CCN(C(=O)Nc3c(Cl)cccc3Cl)CC2)cc1 [Compound 175] | 215 to 216 °C | 24 nM |
| COc1ccc(CNCC(=O)Nc2ccc(N3CCN(C(=O)Nc4c(Cl)cccc4Cl)CC3)cc2)cc1 [Compound 177] | 128 to 129 °C | 245 nM |
| O=C(CNCc1ccc(Cl)cc1)Nc1ccc(N2CCN(C(=O)Nc3c(Cl)cccc3Cl)CC2)cc1 [Compound 178] | 183 to 184 °C | 75.9 nM |
| Cc1ccc(CNCC(=O)Nc2ccc(N3CCN(C(=O)Nc4c(Cl)cccc4Cl)CC3)cc2)c(C)c1 [Compound 181] | 163 to 165 °C | 75.9 nM |
| C=CCN(CCC(=O)Nc1ccc(N2CCN(C(=O)Nc3c(Cl)cccc3Cl)CC2)cc1)c1ccc(C)cc1C [Compound 183] | 226 to 227 °C | 12.6 nM |
| Cc1ccc(NCC(=O)Nc2ccc(N3CCN(C(=O)Nc4c(Cl)cc(O)cc4Cl)CC3)cc2)c(C)c1 [Compound 185] | 202 to 203 °C | 3.72 nM |
| C=CCN(CC(=O)Nc1ccc(N2CCN(C(=O)Nc3c(Cl)cc(OC)cc3OC)CC2)cc1)c1ccc(C)cc1C [Compound 186] | 181 to 182 °C | 13.8 nM |
| COc1cc(Cl)c(NC(=O)N2CCN(c3ccc(NC(=O)CCCc4ccccc4)cc3)CC2)c(OC)c1 [Compound 188] | 208 to 210 °C | 74.1 nM |
| O=C(CCCc1ccccc1)Nc1ccc(N2CCN(C(=S)Nc3c(Cl)cccc3Cl)CC2)cc1 [Compound 189] | 238.7 °C | 12 nM |
| COc1cc(CNC(=O)c2ccc(N3CCN(C(=O)Cc4c(Cl)cccc4Cl)CC3)cc2)cc(OC)c1 [Compound 225] | 212.29 °C | 9.55 nM |
| CCOC(=O)c1ccc(CCCCCNC(=O)c2ccc(N3CCN(C(=O)Nc4c(Cl)cc(CN5CCCC5)cc4Cl)CC3)cc2)cc1 [Compound 226] | 180.97 °C | 9.77 nM |
| COc1ccc(CNC(=O)c2ccc(N3CCN(C(=O)Nc4c(Cl)cc(CC(=O)N5CCN(C)CC5)cc4Cl)CC3)cc2)cc1 [Compound 228] | 220.01 °C | 19.1 nM |
| O=C(NCc1cccc2ccccc12)c1ccc(N2CCN(C(=O)Cc3c(Cl)cccc3Cl)CC2)cc1 [Compound 229] | 242.15 °C | 30.9 nM |
| COc1ccc(CNC(=O)c2ccc(N3CCN(C(=O)Cc4c(Cl)cccc4Cl)CC3)cc2)c(OC)c1 [Compound 230] | 180.99 °C | 42.7 nM |
| COc1ccc(CNC(=O)c2ccc(N3CCN(C(=O)Nc4c(Cl)cc(CN5CCCC5)cc4Cl)CC3)cc2)cc1 [Compound 232] | 222.04 °C | 46.8 nM |
| Cc1ccccc1CNC(=O)c1ccc(N2CCN(C(=O)Cc3c(Cl)cccc3Cl)CC2)cc1 [Compound 233] | 244.09 °C | 50.1 nM |
| O=C(NCc1cccc(N2CCCC2)c1)c1ccc(N2CCN(C(=O)Cc3c(Cl)cccc3Cl)CC2)cc1 [Compound 234] | 251.1 °C | 50.1 nM |
| O=C(NCc1ccc(-c2ccccn2)cc1)c1ccc(N2CCN(C(=O)Nc3c(Cl)cc(CN4CCCC4)cc3Cl)CC2)cc1 [Compound 236] | 217.37 °C | 60.3 nM |
| COc1ccc(CNC(=O)c2ccc(N3CCN(C(=O)Nc4c(Cl)cc(CN(C(C)C)C(C)C)cc4Cl)CC3)cc2)cc1 [Compound 240] | 208.87 °C | 81.3 nM |

The next lines start with the values.

| melting point | IC50 (human DGAT1) | Structure (SMILES) |
| --- | --- | --- |
| 241.1 °C | 1320 nM | O=C(CCN1CCCCC1)Nc1ccc(N2CCN(C(=O)Nc3c(Cl)cccc3Cl)CC2)cc1 [Compound 138] |
| 232 to 234 °C | 63.1 nM | CC(C)C(=O)N(C)CC(=O)Nc1ccc(N2CCN(C(=O)Nc3c(Cl)cccc3Cl)CC2)cc1 [Compound 166] |
| 232 to 233 °C | 6170 nM | CC1CCCN1CCC(=O)Nc1ccc(N2CCN(C(=O)Nc3c(Cl)cccc3Cl)CC2)cc1 (stereo not shown) [Compound 176] |
| 220 to 222 °C | 1070 nM | CC1CCCN1CC(=O)Nc1ccc(N2CCN(C(=O)Nc3c(Cl)cccc3Cl)CC2)cc1 (stereo not shown) [Compound 179] |
| 185 to 187 °C | 407 nM | O=C(CNC1CCCCC1)Nc1ccc(N2CCN(C(=O)Nc3c(Cl)cccc3Cl)CC2)cc1 [Compound 180] |
| 263 to 264 °C | 339 nM | O=C(CCc1ccncc1)Nc1ccc(N2CCN(C(=O)Nc3c(Cl)cccc3Cl)CC2)cc1 [Compound 193] |
| 233 to 234 °C | 33.9 nM | O=C(CCCc1cccnc1)Nc1ccc(N2CCN(C(=O)Nc3c(Cl)cccc3Cl)CC2)cc1 [Compound 194] |
| 194 to 196 °C | 6760 nM | CN(C)CCC(=O)Nc1ccc(N2CCN(C(=O)Nc3c(Cl)cccc3Cl)CC2)cc1 [Compound 196] |
| 251 to 252 °C | 123 nM | O=C(CCCc1ccncc1)Nc1ccc(N2CCN(C(=O)Nc3c(Cl)cccc3Cl)CC2)cc1 [Compound 197] |
| 260 to 261 °C | 229 nM | O=C(CCc1cccnc1)Nc1ccc(N2CCN(C(=O)Nc3c(Cl)cccc3Cl)CC2)cc1 [Compound 198] |
| 245 to 246 °C | 3630 nM | CN(C)CC(=O)Nc1ccc(N2CCN(C(=O)Nc3c(Cl)cccc3Cl)CC2)cc1 [Compound 200] |
| 214 to 216 °C | 1950 nM | O=C(CN1CCCC1)Nc1ccc(N2CCN(C(=O)Nc3c(Cl)cccc3Cl)CC2)cc1 [Compound 201] |
| 245 to 246 °C | 107 nM | C=CC(=O)Nc1ccc(N2CCN(C(=O)Nc3c(Cl)cccc3Cl)CC2)cc1 [Compound 202] |
